Read-outs that look alike come from different tables or passages of the source.
Assays:
Assay type in all cases: cell-based
[1] = tested on: Staphylococcus aureus ATCC 6538; test: Antimicrobial Efficacy Test - Microcentrifuge Tube Method, S. aureus; conditions: for Log / cfu/ml / log reduction: 60 minute exposure
Method: (§1) For efficacy studies against Propionibacterium acnes, Staphylococcus aureus, and Escherichia coli 1% test sample suspensions [Sulfur (S) Sigma or Polymeric Sulfur (Sn) IS90 from Wuxi Wanli Chemical, China] were prepared as w/v in Butterfield's Phosphate Buffer. Serial dilutions of 1:10 were performed v/v for lower concentrations. Aliquots were then pipetted into microcentrifuge tube for exposure to test organism. Concentrations of 10% and 5% for testing against Aspergillus brasiliensis were weighed and diluted directly in microcentrifuge tubes. Each test organism was standardized to concentration of 10E6 cfu/ml. Test sample was inoculated as 1:10 (0.1 ml inoculum to 0.9 ml sample) for final concentration of 10E5 cfu/ml sample. Buffer control sample was included and used to calculate log reduction for each test sample. After inoculation, study tubes were placed at 37° C. (±2° C.), shaking at 1000 rpm for set exposure time (30 minutes, 1 hour or 3 hours). At completion of exposure time, each tube was centrifuged for 10 seconds to settle test material out of suspension. Aliquot of fluid was removed, serial diluted and plated for recovery of viable organisms. Each organism was plated on appropriate media and incubated at proper temperature and length of time before counting recoveries.

[2] = tested on: IL-22-induced IL-8 cytokine release; test: IL-22-induced IL-8 cytokine release in normal human epidermal keratinocytes
Method: The anti-inflammatory potential of polymeric sulfur (Sn) and of regular sulfur (S) were evaluated in-vitro in human primary epidermal cell cultures. Normal human epidermal keratinocytes were purchased from Promocell (Heidelberg, Germany). The cells were plated in 24-well tissue culture treated plates at a density of 30,000 cells/well in Lonza KGM-Gold Bullet Kit without hydrocortisone (Lonza, Walkersville, Md.). After 48 hours, cells were treated with the actives described below: Polymeric form of sulfur (IS-90, Wuxi Wanli Chemical, China) and the regular form of sulfur (Sigma-Aldrich, St Louis, Mo., USA) at indicated concentrations, either in the presence or absence of the pro-inflammatory cytokine IL-22 (R&D Systems, Minneapolis, Minn.) 20 ng/ml. Following the treatment period of 24 hrs, the cell culture media supernatants were collected and analyzed for IL-8 cytokine release using MILLIPLEX®MAP kit (Millipore Corp., Billerica, Mass.).

[3] = tested on: Aspergillus brasiliensis ATCC 16404; test: Antimicrobial Efficacy Test - Microcentrifuge Tube Method, A. brasiliensis; conditions: for Log / cfu/ml / log reduction: 3 hour exposure
Method: as §1

[4] = tested on: IL-8 cytokine release; test: IL-8 cytokine release in normal human epidermal keratinocytes
Method: The irritation/inflammatory/mildness potential of polymeric sulfur (Sn) and of regular sulfur (S) were evaluated in-vitro in human primary cell cultures. Normal human epidermal keratinocytes were purchased from Promocell (Heidelberg, Germany). The cells were plated in 24-well tissue culture treated plates at a density of 30,000 cells/well in Lonza KGM-Gold BulletKit without hydrocortisone (Lonza, Walkersville, Md., USA). After 48 hours, cells were treated with the actives described below: Polymeric form of sulfur (Wuxi Wanli Chemical, China) and the regular form of sulfur (Sigma-Aldrich, St Louis, Mo.) at indicated concentrations for 24 hours, following which supernatants were collected and analyzed for IL-8 and IL-1α cytokine release using MILLIPLEX®MAP kit (Millipore Corp., Billerica, Mass.).

[5] = tested on: Propionibacterium acnes ATCC 6919; test: Antimicrobial Efficacy Test - Microcentrifuge Tube Method, P. acnes; conditions: for Log / cfu/ml / log reduction: 30 minute exposure
Method: as §1

[6] = tested on: IL-1α pro-inflammatory cytokine release; test: IL-1α cytokine release in human skin equivalents (EPI 200 HCF-PRF)
Method: The potential to induce the pro-inflammatory cytokine release IL1-a by either the polymeric sulfur (Sn) and of regular sulfur (S) were evaluated in human skin equivalents. Human skin equivalents (EPI 200 HCF-PRF), multilayer and differentiated epidermis consisting of normal human epidermal keratinocytes, were purchased from MatTek (Ashland, Mass.). Upon receipt, skin equivalents were incubated for 24 hours at 37° C. in maintenance medium without hydrocortisone. Equivalents were topically treated (0.1%, 1% and 10%) with either polymeric sulfur (IS-90, Wuxi Wanli Chemical, China) or regular sulfur (S, Sigma-Aldrich, St Louis, Mo., USA) in 70% ethanol/30% propylene glycol vehicle, and compared to either vehicle alone used as negative control, or to the 10 mM SDS used as positive control. Equivalents were incubated for 48 hours at 37° C. with maintenance medium then supernatants were analyzed for IL-1α pro-inflammatory cytokine release using MILLIPLEX®MAP kit (Millipore Corp., Billerica, Mass.).

[7] = tested on: Escherichia coli ATCC 8739; test: Antimicrobial Efficacy Test - Microcentrifuge Tube Method, E. coli; conditions: for Log / cfu/ml / log reduction: 30 minute exposure
Method: as §1

S1SSSSSSS1 [S, Sulfur]
Log ([1]; 0.001%): 4.0
cfu/ml ([1]; 0.001%): 9.1E+03 cfu/ml
log reduction ([1]; 0.001%): 1.4
Log ([1]; 0.01%): 4.0
cfu/ml ([1]; 0.01%): 1.0E+04 cfu/ml
log reduction ([1]; 0.01%): 1.4
Log ([1]; 0.1%): 3.5
cfu/ml ([1]; 0.1%): 3.0E+03 cfu/ml
log reduction ([1]; 0.1%): 1.9
Log ([1]; 1% w/v): 5.3
cfu/ml ([1]; 1% w/v): 2.1E+05 cfu/ml
log reduction ([1]; 1% w/v): 0.1
antimicrobial efficacy, conclusion ([1]; at 0.1%): the forms were equivalent
IL-8 release vs untreated control cells in presence of IL-22 (FIG. 1) ([2]; 0.01% up to 3%, IL-22 20 ng/ml, 24 hrs): did induce significantly the stimulation of the pro-inflammatory cytokine IL-8
anti-inflammatory potential in human primary epidermal cells in vitro ([2]; composition, measured per procedure of the Examples): greater than 220 pg/ml
Log ([3]; 0.1%): 5.5
cfu/ml ([3]; 0.1%): 3.2E+05 cfu/ml
log reduction ([3]; 0.1%): −0.1
Log ([3]; 1%): 5.3
cfu/ml ([3]; 1%): 2.0E+05 cfu/ml
log reduction ([3]; 1%): 0.1
Log ([3]; 5%): 5.5
cfu/ml ([3]; 5%): 2.9E+05 cfu/ml
log reduction ([3]; 5%): −0.1
Log ([3]; 10%): 5.4
cfu/ml ([3]; 10%): 2.8E+05 cfu/ml
log reduction ([3]; 10%): 0.0
antimicrobial efficacy, conclusion ([3]; at 1% or 0.01%): Neither was efficacious
stimulation of pro-inflammatory cytokine IL-8 vs untreated control cells (FIG. 3) ([4]; 0.01% up to 3%, 24 hours, no IL-22): did induce significantly the stimulation of the pro-inflammatory biomarker cytokine IL-8
Log ([5]; 0.001%): 5.3
cfu/ml ([5]; 0.001%): 2.0E+05 cfu/ml
log reduction ([5]; 0.001%): 0.1
Log ([5]; 0.01%): 5.3
cfu/ml ([5]; 0.01%): 1.9E+05 cfu/ml
log reduction ([5]; 0.01%): 0.1
Log ([5]; 0.1%): 5.3
cfu/ml ([5]; 0.1%): 1.8E+05 cfu/ml
log reduction ([5]; 0.1%): 0.1
Log ([5]; 1% w/v): 5.2
cfu/ml ([5]; 1% w/v): 1.6E+05 cfu/ml
log reduction ([5]; 1% w/v): 0.2
antimicrobial efficacy, conclusion ([5]; at 0.01% or 0.001%): Neither form was efficacious
stimulation of pro-inflammatory cytokine IL-1α (FIG. 2) ([6]; topical 0.1%, 1% and 10% in 70% ethanol/30% propylene glycol, 48 hours): did induce the stimulation of the pro-inflammatory cytokine IL-1α in a dose-dependent manner
Log ([7]; 0.001%): 6.1
cfu/ml ([7]; 0.001%): 1.3E+06 cfu/ml
log reduction ([7]; 0.001%): 0.1
Log ([7]; 0.01%): 6.1
cfu/ml ([7]; 0.01%): 1.3E+06 cfu/ml
log reduction ([7]; 0.01%): 0.1
Log ([7]; 0.1%): 6.1
cfu/ml ([7]; 0.1%): 1.4E+06 cfu/ml
log reduction ([7]; 0.1%): 0.1
Log ([7]; 1% w/v): 6.2
cfu/ml ([7]; 1% w/v): 1.5E+06 cfu/ml
log reduction ([7]; 1% w/v): 0.0
antimicrobial efficacy, conclusion ([7]; at 0.1%, 0.01% or 0.001%): Neither form was efficacious

Polymeric Sulfur [Sn]
stimulation of pro-inflammatory cytokine IL-8 vs untreated control cells (FIG. 3) [4]: showed significantly lower stimulation of the pro-inflammatory cytokine IL-8
stimulation of pro-inflammatory cytokine IL-1α (FIG. 2) [6]: did not induce the production of IL-1α to the same extent
